# From US6911429B2, “Compositions and methods for treating cellular response to injury and other proliferating cell disorders regulated by hyaladherin and hyaluronans” (Transition Therapeutics Inc., priority 1999, dated 2005)
# Where no end group is shown, it is not given here.
# Key:
# [1] = test system: MDA231 human breast cancer cells; assay: cell motility of MDA231 breast cancer cells; type: cell-based
# MDA231 cells = assay: in vitro invasion of MDA231 cells; type: cell-based, human
# [2] = test system: RHAMMv4 overexpressing cells; assay: cell migration into wounds / wound repair of RHAMMv4 overexpressing cells; type: cell-based
# Description: (§1) To further illustrate the relationship between RHAMM, erk activity and podosome formation in transient stage cells, podosome formation is shown to be inhibited by inhibitors of erk activity. […] Overexpression of RHAMMv4 results in a sustained high production of podosomes, detected by the marker protein cortactin (A). […] Overexpression of RHAMMv4 enhances cell migration into wounds (D) compared to the parent 10T1/2 fibroblast line that produces little RHAMMv4 (E).
# [3] = test system: RHAMMv4 overexpressing cells; assay: podosome formation in RHAMMv4 overexpressing cells (cortactin marker); type: cell-based; details: RHAMMv4 overexpression
# Description: as §1
# NOD mice = assay: NOD mouse model of type I diabetes mellitus; type: in vivo; details: 5 mg/kg i.p. three times a week for 23 weeks
# Description: There are different colonies of NOD mice and there can be some variability between the colonies. The colony used develops the disease between 15-20 weeks of age and there is a 70-80% incidence of diabetes mellitus. The mice treated were divided into two groups of 10 animals; the first group being treated with P-16 peptide and the other group comprising of the control group, which was treated with saline. Once the NOD mice were 5 weeks old, the P-16 peptide was injected three times a week interperitoneally at a dose of 5 mg/kg for 23 weeks. The untreated mice and five mice from the treated group were sacrificed at 28 weeks of age. The remaining five mice from the treated group were taken off the peptide treatment at 28 weeks of age and were assessed for the disease after 16 weeks.
# There are different colonies of NOD mice and there can be some variability between the colonies. The colony used develops the disease between 15-20 weeks of age and there is a 70-80% incidence of diabetes mellitus. The mice treated were divided into three groups of 10 animals; the first two groups being treated with S-3 and S-7 peptides, and the third group comprising of the control group, which was treated with saline. Once the NOD mice were 5 weeks old, the S-3 and S-7 peptides were injected three times a week intraperitoneally at a dose of 0.1 mg/kg for 23 weeks.
# ND4 transgenic mice = assay: ND4 transgenic mouse model of multiple sclerosis (demyelination clinical signs); type: in vivo; details: 10 mg/kg intraperitoneally three times per week
# Description: Briefly, transgenic mice (ND 4) bearing 70 copies of the transgene for DM20, a myelin proteolipid protein, were utilized for assignment of scores based upon clinical signs of demyelination. Clinical signs which were assessed included general shaking, seizures, head jerk, hind-limb and tail shiver, unsteadiness, wobbly gait and limp tail. Within each sign score between 0-4 was given: where zero score means absent and score 4 means constant and uncontrollable appearance of the sign of the disease. Experimental groups of mice were divided into 4; each group contained 5 animals: one normal, one ND 4 mouse untreated and three ND 4 mice treated with RHAMM mimetic—P-peptide. Animals were treated three times per week with 10 mg/kg of P-peptide intraperitonealy. Peptide was resuspended in 300 μl of PBS.
# The severity of the clinical signs increase until maximum around 6 months with animals dying around 8 to 9 months of age. The clinical signs assessed include general shaking, seizures, head jerk, hind limb and tail shiver, wobbly gait and limp tail. The scale of zero (absence) to four (constant and uncontrollable movements) was used for each of the clinical signs. […]
# EAE in SJL/J mice = assay: EAE mouse model for multiple sclerosis; type: in vivo; details: 5 mg/kg i.p. daily; failed to reach statistical significance
# Description: Acute EAE was induced by immunization of 3 months old SJL/J female mice (Jackson Lab.; Bar Harbor, Me.) with the MBP and PTX pertussis toxin. Each animal received a sub-cutaneous injection at tail base of 200 μg MBP in 0.1 ml of CFA and received an intravenous injection of 200 ng of PTX. Pertussis toxin was injected again 48 hours later. Mice (4 animals per group) were treated with one of the following treatments through intraperitoneal injections: P-32 peptide at a dose of 5 mg/kg daily; S-7 peptide at a dose of 0.1 mg/kg daily starting on the day of first immunization. Treatment was stopped at time of sacrifice. Mice were monitored daily from day 7 after immunization for clinical signs of EAE and were scored on a scale of 0 to 5. A score of 0 represented the absence of signs while a score of 5 was given to moribund animals.
# [4] = binding to hyaluronic acid (HA)
# Description: The present invention provides a method of similar sensitivity but which is cheaper and more reliable. The method is based on using HA binding partners discovered using the techniques described above for detecting RHAMM binding partners. Using a phage display library to bind to biotinylated HA permitted identification of five particular species of HA binding motifs described in SEQ. ID NOS: 6-10. This was accomplished by isolating phage that attached to HA which were further isolated, rescreened twice and recloned. The clones were then bound to biotinylated HA-sepharose beads and only those phage that could be released with unlabeled HA were retrieved, recloned and sequenced. Five clones comprising the sequences identified above were detected. These sequences all bind to HA and are useful for detecting HA in serum and tissues in an assay described below.
# excisional skin wound = assay: rat punch biopsy excisional skin wound model; type: in vivo; details: local application
# [5] = test system: bleomycin-induced lung fibrosis; assay: bleomycin-induced lung injury / fibrosis model; type: in vivo
# Description: As described in more detail below, the RHAMM peptide mimetics prevent these pathological events, particularly recruitment and activation of macrophages, from occurring following bleomycin-induced lung fibrosis (FIG. 32). In particular, the infiltration of inflammatory cells and local responses such as fibrosis is completely absent with treatment. […] Therefore, these reagents should be effective for treating lung diseases that involve recruiting macrophages and inflammatory cells, as well as fibrosis. FIG. 34 illustrates motility of BAL cells four days after injury in response to administration of RHAMM peptides. […] Values represent mean and standard error with three animals studied for each condition and at least 20 cells tracked per animal studied. Increased N-acetyl-β-glucosamimidase activity is a known marker for fibrosis in lung tissue. […] Briefly, bleomycin injury results in an increased glucosamimidase activity (* p<0.01 versus controls and saline animals). […] Values represent mean and standard error with five animals studied for each condition. FIG. 35B illustrates that mRNA of collagen type la in lungs harvested 4 days after injury is reduced in response to administration of HA binding Peptide A. Collagen type la is common indicator of fibrosis in lung tissue injury models as used throughout this invention. […] The data shown are representative of three independent experiments. The ability of HA binding peptides to inhibit fibrosis is further illustrated by histological analysis. FIG. 36 are micrographs from a histological analysis of lung tissue treated with and without HA binding Peptide A after bleomycin injury. Panels (a-c) show tissue after treatment with saline alone, and panels (d-f) show tissues injured by bleomycin treatment.
# human fibroblasts = assay: velocity of cell locomotion of human fibroblasts on fibronectin; type: cell-based; details: 0.1-50 ng/ml, 16 hrs
# Description: To quantify the effect of RHAMM sequence (amino acid residues 423-432; 423-432AA) to alter velocity of cell locomotion human fibroblasts were seeded on T-12.5 fibronectin coated flasks using A-MEM supplemented with glucose and 10% FBS. 2.5×10^4 cells were seeded and cells incubated for 4 hrs at 37° C. After incubation time cells were treated with increasing concentrations of RHAMM sequence peptide (423-432 AA, 0.1, 1.0, 5.0, 10 and 50 ng/ml) and cell locomotion was monitored over the period of 16 hrs on a 37° C. using 10× modulation objective (Zeiss, Germany) attached to a Zeiss Axiovert 100 inverted microscope equipped with Hoffman Modulation contrast optical filters (Greenvale, N.Y.). Cell images were captured with a CCD video camera module attached to a Hamamatsu CCD camera controller. Motility was assessed using Northern Exposure 2.9 image analysis software (Empix Imaging, Mississauga, Ontario). Nuclear displacement of 7-10 cells was measured and data were subjected to statistical analysis. Statistically significant (P<0.05) differences between means were assessed by the unpaired Student's T-test method, performed using Microsoft Excel '97 software.
# [6] = molecular target: RHAMM binding to fibronectin (Homo sapiens, UniProt P02751); assay: RHAMM binding to fibronectin (ELISA)
# RHAMM binding to fibronectin, sequence (P02751 32-2477): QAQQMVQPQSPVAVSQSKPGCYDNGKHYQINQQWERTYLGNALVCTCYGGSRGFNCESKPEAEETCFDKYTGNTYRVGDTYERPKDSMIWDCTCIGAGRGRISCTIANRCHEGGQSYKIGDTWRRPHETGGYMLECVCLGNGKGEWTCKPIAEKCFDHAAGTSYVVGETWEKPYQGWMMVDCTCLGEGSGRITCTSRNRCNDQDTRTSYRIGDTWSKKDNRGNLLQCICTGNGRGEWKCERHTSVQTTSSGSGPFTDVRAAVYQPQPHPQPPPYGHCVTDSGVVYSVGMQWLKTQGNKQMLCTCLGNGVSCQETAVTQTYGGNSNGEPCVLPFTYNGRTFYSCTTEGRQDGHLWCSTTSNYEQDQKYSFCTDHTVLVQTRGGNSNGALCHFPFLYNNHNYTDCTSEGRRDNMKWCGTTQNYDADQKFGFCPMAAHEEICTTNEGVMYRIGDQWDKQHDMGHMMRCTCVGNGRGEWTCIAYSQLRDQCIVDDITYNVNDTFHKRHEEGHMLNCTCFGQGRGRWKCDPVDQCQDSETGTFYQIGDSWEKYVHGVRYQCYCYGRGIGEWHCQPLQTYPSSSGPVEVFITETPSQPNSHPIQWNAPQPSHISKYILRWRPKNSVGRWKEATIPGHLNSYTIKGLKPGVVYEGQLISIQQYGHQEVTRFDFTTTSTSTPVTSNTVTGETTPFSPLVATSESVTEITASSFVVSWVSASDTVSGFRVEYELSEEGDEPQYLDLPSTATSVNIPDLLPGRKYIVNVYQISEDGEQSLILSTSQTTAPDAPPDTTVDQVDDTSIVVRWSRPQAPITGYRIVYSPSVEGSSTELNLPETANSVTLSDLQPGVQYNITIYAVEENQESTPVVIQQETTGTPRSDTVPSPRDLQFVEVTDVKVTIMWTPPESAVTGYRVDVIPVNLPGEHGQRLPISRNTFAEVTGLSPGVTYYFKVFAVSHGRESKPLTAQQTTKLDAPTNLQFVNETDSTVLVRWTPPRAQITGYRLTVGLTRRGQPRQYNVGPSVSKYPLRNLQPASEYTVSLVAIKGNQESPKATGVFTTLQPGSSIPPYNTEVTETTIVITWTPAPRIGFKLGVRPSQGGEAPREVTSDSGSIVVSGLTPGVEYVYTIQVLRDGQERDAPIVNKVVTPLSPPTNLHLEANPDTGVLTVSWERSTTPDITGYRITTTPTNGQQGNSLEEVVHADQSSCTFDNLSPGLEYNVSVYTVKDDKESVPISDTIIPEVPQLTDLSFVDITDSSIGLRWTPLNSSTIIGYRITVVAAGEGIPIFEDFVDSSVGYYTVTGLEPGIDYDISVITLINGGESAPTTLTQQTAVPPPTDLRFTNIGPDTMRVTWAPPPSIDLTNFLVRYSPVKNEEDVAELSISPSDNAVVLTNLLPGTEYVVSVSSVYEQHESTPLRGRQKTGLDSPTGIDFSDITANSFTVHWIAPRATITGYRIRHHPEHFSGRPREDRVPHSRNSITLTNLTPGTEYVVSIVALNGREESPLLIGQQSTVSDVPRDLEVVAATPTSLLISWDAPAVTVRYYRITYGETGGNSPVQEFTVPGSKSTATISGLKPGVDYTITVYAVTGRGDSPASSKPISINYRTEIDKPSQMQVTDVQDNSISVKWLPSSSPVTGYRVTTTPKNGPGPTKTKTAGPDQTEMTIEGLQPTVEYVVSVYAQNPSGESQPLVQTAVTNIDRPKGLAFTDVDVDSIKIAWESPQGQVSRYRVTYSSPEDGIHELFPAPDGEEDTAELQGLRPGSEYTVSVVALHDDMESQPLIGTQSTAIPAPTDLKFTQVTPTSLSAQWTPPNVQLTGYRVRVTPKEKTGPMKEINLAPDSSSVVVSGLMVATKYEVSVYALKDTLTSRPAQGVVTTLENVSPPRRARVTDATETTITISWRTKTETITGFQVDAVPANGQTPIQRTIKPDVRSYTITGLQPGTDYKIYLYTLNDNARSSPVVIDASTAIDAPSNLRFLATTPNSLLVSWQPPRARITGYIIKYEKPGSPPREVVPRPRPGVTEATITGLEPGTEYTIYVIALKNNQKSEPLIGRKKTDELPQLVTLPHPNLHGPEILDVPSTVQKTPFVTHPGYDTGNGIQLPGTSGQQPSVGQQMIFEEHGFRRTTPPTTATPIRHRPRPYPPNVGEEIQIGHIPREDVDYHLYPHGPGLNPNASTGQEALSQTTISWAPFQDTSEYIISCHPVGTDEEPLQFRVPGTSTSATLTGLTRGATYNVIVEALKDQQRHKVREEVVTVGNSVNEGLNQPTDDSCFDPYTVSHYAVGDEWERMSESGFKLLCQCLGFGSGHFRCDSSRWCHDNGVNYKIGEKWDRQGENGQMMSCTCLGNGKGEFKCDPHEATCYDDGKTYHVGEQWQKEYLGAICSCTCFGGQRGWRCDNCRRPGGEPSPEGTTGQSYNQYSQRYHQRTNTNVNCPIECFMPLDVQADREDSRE
# Description: FIG. 21 further illustrates that RHAMM binds to the CS-1 fragment of fibomectin and not to the RGDS sequence which was previously considered to be a critical sequence for fibronectin signaling of matrix protein degradation.
# invasive cells = assay: motility of invasive cells treated with RHAMM exon peptides or antibodies (FIG. 16); type: cell-based; details: P<0.001 for peptide vs scrambled peptide
# Description: This effect is quantified in the graph shown in 16C and is highly significant (P<0.001, student's T test).
# LR21 cells = assay: podosome formation in LR21 cells treated with exon 4 peptide (cortactin or CAS); type: cell-based
# Description: Podsomome formation was visualized using either fluorescent cortactin or CAS, the latter being a particularly useful marker for podosomes as illustrated by the micrographs in FIG. 17B.
# [7] = molecular target: erk1 His-6-tagged fusion protein; assay: peptide competition of erk1 His-6 binding to RHAMM v4 beads; D4 and D5 peptides present together
molecule,measurement,setting,value
COc1cccc(-c2cc(=O)c3ccccc3o2)c1N [PD09058],cell motility / locomotion,[1],strongly reduces cellular locomotion
same,cell invasion in vitro,MDA231 cells,blocks cell invasion
same,wound repair (cell migration into wounds),[2],blocks wound repair
same,number of podosomes,[3],reduces the number of podosomes
"CSTMMSRSHKTRSHHV [P-peptide, CSTMMSRSHKTRSHHV]",toxicity,NOD mice,absence of any toxicity
same,toxicological or lethal effects on animals,ND4 transgenic mice,without observing toxicological or lethal effects
"KQKIKHVVKLKDENSQLKSEVSKLRCQLAKKK [P-32, specific RHAMM region]",decrease in mean clinical score,EAE in SJL/J mice,20%
"RGGGGGGGR (Peptide that binds a hyalauronan) [peptide D, reference compound]",binding to HA,[4],does not bind HA
same,infiltration of macrophages in wounded biopsies (Glucosimimidase activity),excisional skin wound,does not inhibit macrophage infiltration
RGGGRGGGR (Peptide that binds a hyalauronan) [C],infiltration of macrophages in wounded biopsies (Glucosimimidase activity),excisional skin wound,inhibited the infiltration of macrophages
RGGGRGGRR (Peptide that binds a hyalauronan) [peptide B],infiltration of macrophages in wounded biopsies (Glucosimimidase activity),excisional skin wound,inhibited the infiltration of macrophages
RGGGRGRRR (Peptide that binds a hyalauronan) [Peptide A],increase in collagen type la mRNA in lungs,[5]; 4 days after injury,completely inhibited
same,N-acetyl-β-glucosamimidase activity of BAL cells,[5]; 7 days after bleomycin injury,significantly decreased glucosamimidase activity
same,lung histology,[5]; after bleomycin injury,normal lung architecture
same,motility of BAL cells (macrophages),"[5]; four days after bleomycin injury, peptide given prior to injury",significantly lower cell locomotion
same,infiltration of macrophages in wounded biopsies (Glucosimimidase activity),excisional skin wound,inhibited the infiltration of macrophages
"RHAMM sequence (423-432 AA): RHAMM sequence peptide, amino acid residues 423-432 (SEQ ID NO 24) (KLRSQLVKRKQ; Homo sapien)",inhibition of migration of human fibroblasts,human fibroblasts,up to 40%
"SEQ. ID NO: 15: peptide mimicking RHAMM exon 3, used to raise anti-exon 3 antibodies (KLQATQKDLTESKG; listed as Mus musculus)",binding of RHAMM to fibronectin,[6],able to block the binding of intact RHAMM to fibronectin
same,motility of invasive cells,invasive cells,block the motility of invasive cells
SEQ. ID NO: 16: peptide from murine RHAMM exon 4 (VSIEKEKIDEKCETEKLLEYIQEIS; listed as Mus musculus),formation of podosomes,LR21 cells,blocks the formation of podosomes
QEKYNDTAQSLRDVTAQLESV [D4 peptide of RHAMM],reduction of erk1 binding to v4,[7],90%
KQKIKHVVKLKDENSQLKSEVSKLRSQLVKRK [D5 peptide of RHAMM],reduction of erk1 binding to v4,[7],90%
